Values joined by “and” are separate entries in the source; they are usually repeats but may differ in a detail not shown here. Identical values can stand only once. Toxic doses and inconclusive results are not listed. Rule as the data show it: active = T/C of 150% or more; inactive = T/C below 125%.
Test system: L1210 leukemia ip in BDF1 mice, survival T/C
Experiment: NCI In Vivo Anticancer Drug Screen. Data for tumor model L1210 Leukemia (intraperitoneal) in B6D2F1 (BDF1) mice
Conditions: endpoint: mean survival time, higher = longer survival
How it was run: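 Read-out is survival time, reported as the treated-group measurement over the vehicle-control measurement.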

[1] = dose: 100.0 mg/kg/injection, schedule: Q04DX003 (ip), vehicle: Klucel (hydroxypropylcellulose) (HPC)
[2] = dose: 200.0 mg/kg/injection, schedule: Q04DX003 (ip), vehicle: Klucel (hydroxypropylcellulose) (HPC)
[3] = dose: 50.0 mg/kg/injection, schedule: Q01DX009 (ip), vehicle: Klucel (hydroxypropylcellulose) (HPC)
[4] = dose: 100.0 mg/kg/injection, schedule: Q01DX009 (ip), vehicle: Klucel (hydroxypropylcellulose) (HPC)
[5] = dose: 200.0 mg/kg/injection, schedule: Q01DX009 (ip), vehicle: Klucel (hydroxypropylcellulose) (HPC)
[6] = dose: 400.0 mg/kg/injection, schedule: Q04DX003 (ip), vehicle: Klucel (hydroxypropylcellulose) (HPC)
[7] = dose: 100.0 mg/kg/injection, schedule: Q01DX009 (ip), vehicle: saline
[8] = dose: 100.0 mg/kg/injection, schedule: Q04DX003 (ip), vehicle: saline
[9] = dose: 200.0 mg/kg/injection, schedule: Q01DX009 (ip), vehicle: saline
[10] = dose: 200.0 mg/kg/injection, schedule: Q04DX003 (ip), vehicle: saline
[11] = dose: 400.0 mg/kg/injection, schedule: Q04DX003 (ip), vehicle: saline
[12] = dose: 400.0 mg/kg/injection, schedule: Q01DX009 (ip), vehicle: Klucel (hydroxypropylcellulose) (HPC)

Measured: T/C

O=CNNc1ccccc1
inactive: dose: 75.0 mg/kg/injection, schedule: Q01DX001 (ip), vehicle: acetone 98 % of control | [1] 106 % of control | dose: 150.0 mg/kg/injection, schedule: Q01DX001 (ip), vehicle: acetone 100 % of control | [2] 95 % of control | dose: 300.0 mg/kg/injection, schedule: Q01DX001 (ip), vehicle: acetone 96 % of control

CC(=O)OC1CCC2(C)C(C)CC3C(=O)OC32C1 (stereo not given)
inactive: dose: 100.0 mg/kg/injection, schedule: Q04DX003 (ip), vehicle: acetone 87 % of control | dose: 200.0 mg/kg/injection, schedule: Q04DX003 (ip), vehicle: acetone 90 % of control

CC(c1ccccc1)n1cnc2c(N(CCO)CCO)ncnc21 (stereo not given)
inactive: dose: 100.0 mg/kg/injection, schedule: Q01DX001 (ip), vehicle: saline 117 % of control | dose: 200.0 mg/kg/injection, schedule: Q01DX001 (ip), vehicle: saline 104 % of control | dose: 400.0 mg/kg/injection, schedule: Q01DX001 (ip), vehicle: saline 101 % of control

ClC(Cl)=C1C(Cl)=C(Cl)C(Cl)=C1Cl
inactive: [3] 97 % of control | dose: 50.0 mg/kg/injection, schedule: Q04DX003 (ip), vehicle: Klucel (hydroxypropylcellulose) (HPC) 96 % of control | [4] 100 % of control | [1] 96 % of control | [5] 94 % of control | [2] 93 % of control

C=CCc1c(C)nc(N)[nH]c1=O
inactive: [1] 104 % of control | [2] 107 % of control | [6] 102 % of control

COC(=O)C(N)CCl (stereo not given)
inactive: dose: 100.0 mg/kg/injection, schedule: Q01DX001 (ip), vehicle: steriod suspending solution 101 % of control | [7] 93 % of control | [8] 106 % of control | dose: 200.0 mg/kg/injection, schedule: Q01DX001 (ip), vehicle: steriod suspending solution 95 % of control | [9] 100 % of control | [10] 102 % of control | dose: 400.0 mg/kg/injection, schedule: Q01DX001 (ip), vehicle: steriod suspending solution 106 % of control | dose: 400.0 mg/kg/injection, schedule: Q01DX009 (ip), vehicle: saline 101 % of control | [11] 104 % of control

Cc1ccc(Cl)c(NC(=O)Nc2cccc(F)c2)c1
inactive: [4] 94 % of control | [5] 87 % of control | [12] 89 % of control

CC(=O)Nc1ccc(S(=O)(=O)Cl)cc1
inactive: dose: 75.0 mg/kg/injection, schedule: Q01DX001 (ip), vehicle: other 94 % of control | [8] 108 % of control | dose: 150.0 mg/kg/injection, schedule: Q01DX001 (ip), vehicle: other 88 % of control | [10] 92 % of control | [11] 90 % of control

Nc1ncnc2nc[nH]c12.[Cl][Pt][Cl]
inactive: dose: 100.0 mg/kg/injection, schedule: Q01DX009 (ip), vehicle: water 101 % of control | dose: 100.0 mg/kg/injection, schedule: Q04DX003 (ip), vehicle: water 94 % of control | dose: 200.0 mg/kg/injection, schedule: Q01DX009 (ip), vehicle: water 96 % of control | dose: 200.0 mg/kg/injection, schedule: Q04DX003 (ip), vehicle: water 87 % of control | dose: 400.0 mg/kg/injection, schedule: Q01DX009 (ip), vehicle: water 90 % of control | dose: 400.0 mg/kg/injection, schedule: Q04DX003 (ip), vehicle: water 94 % of control

CC(C)C(NCCNC(C(C)C)C(C)C)C(C)C
inactive: dose: 50.0 mg/kg/injection, schedule: Q01DX009 (ip), vehicle: saline 106 % of control | [7] 102 % of control | [9] 106 % of control

Cc1ccc(S(=O)(=O)N2CCCC(=O)c3ccccc32)cc1
inactive: dose: 100.0 mg/kg/injection, schedule: Q01DX001 (ip), vehicle: carboxymethylcellulose (CMC) 107 % of control | dose: 200.0 mg/kg/injection, schedule: Q01DX001 (ip), vehicle: carboxymethylcellulose (CMC) 100 % of control | dose: 400.0 mg/kg/injection, schedule: Q01DX001 (ip), vehicle: carboxymethylcellulose (CMC) 102 % of control

CCCC(=O)Nc1cc(OC)ccc1OC
inactive: [4] 106 % of control | [5] 97 % of control

COc1ccc(NC(=O)Oc2ccccc2C(N)=O)c(OC)c1
inactive: dose: 25.0 mg/kg/injection, schedule: Q01DX009 (ip), vehicle: Klucel (hydroxypropylcellulose) (HPC) 109 % of control | [3] 102 % of control | [4] 103 % of control and 112 % of control

O=S1(=O)C=CC(Br)C1 (stereo not given)
inactive: dose: 100.0 mg/kg/injection, schedule: Q01DX001 (ip), vehicle: saline with Tween-80 100 % of control | dose: 200.0 mg/kg/injection, schedule: Q01DX001 (ip), vehicle: saline with Tween-80 101 % of control

CC(=O)Nc1cc(Cl)ccc1C(=O)O
inactive: dose: 100.0 mg/kg/injection, schedule: Q01DX001 (ip), vehicle: other 109 % of control | dose: 100.0 mg/kg/injection, schedule: Q04DX003 (ip), vehicle: other 96 % of control | dose: 200.0 mg/kg/injection, schedule: Q01DX001 (ip), vehicle: other 98 % of control | dose: 200.0 mg/kg/injection, schedule: Q04DX003 (ip), vehicle: other 90 % of control | dose: 400.0 mg/kg/injection, schedule: Q01DX001 (ip), vehicle: other 101 % of control | dose: 400.0 mg/kg/injection, schedule: Q04DX003 (ip), vehicle: other 96 % of control

CCOC(=O)C(C(=O)Nc1ccccc1)C(=O)OCC
inactive: [4] 99 % of control | [1] 90 % of control | [5] 100 % of control | [2] 93 % of control | [12] 105 % of control | [6] 98 % of control

C1=C(c2ccccc2)N(C2CCCCCCC2)C(c2ccccc2)=CN1Cc1ccccc1
inactive: dose: 100.0 mg/kg/injection, schedule: Q04DX002 (ip), vehicle: Klucel (hydroxypropylcellulose) (HPC) 103 % of control | dose: 200.0 mg/kg/injection, schedule: Q04DX002 (ip), vehicle: Klucel (hydroxypropylcellulose) (HPC) 103 % of control | dose: 400.0 mg/kg/injection, schedule: Q04DX002 (ip), vehicle: Klucel (hydroxypropylcellulose) (HPC) 100 % of control

CCCC(C)OP(=O)(OCC)OCC (stereo not given)
inactive: [4] 94 % of control | [5] 100 % of control

c1ccc(C(N2CCCCC2)N2CCCCC2)cc1
inactive: [1] 106 % of control | [2] 103 % of control

CCC[N+](C)(C)CCCCOCCCC[N+](C)(C)CCC
inactive: dose: 3.12 mg/kg/injection, schedule: Q01DX009 (ip), vehicle: saline 104 % of control | dose: 6.25 mg/kg/injection, schedule: Q01DX009 (ip), vehicle: saline 92 % of control | dose: 12.5 mg/kg/injection, schedule: Q01DX009 (ip), vehicle: saline 103 % of control | dose: 12.5 mg/kg/injection, schedule: Q04DX003 (ip), vehicle: saline 95 % of control

O=C(N/N=C/c1cccc2ccccc12)c1cccnc1
inactive: [4] 101 % of control

O=C1c2ccccc2C2(c3ccccc3)C=NNC12c1ccccc1 (stereo not given)
inactive: dose: 100.0 mg/kg/injection, schedule: Q01DX001 (ip), vehicle: Klucel (hydroxypropylcellulose) (HPC) 103 % of control | [1] 106 % of control | dose: 200.0 mg/kg/injection, schedule: Q01DX001 (ip), vehicle: Klucel (hydroxypropylcellulose) (HPC) 98 % of control | [2] 97 % of control | dose: 400.0 mg/kg/injection, schedule: Q01DX001 (ip), vehicle: Klucel (hydroxypropylcellulose) (HPC) 95 % of control | [6] 103 % of control

O=C(NCc1cnccn1)c1ccccc1Cl
inactive: dose: 100.0 mg/kg/injection, schedule: Q01DX009 (ip), vehicle: saline with Tween-80 86 % of control | dose: 100.0 mg/kg/injection, schedule: Q04DX003 (ip), vehicle: saline with Tween-80 96 % of control | dose: 200.0 mg/kg/injection, schedule: Q01DX009 (ip), vehicle: saline with Tween-80 104 % of control | dose: 200.0 mg/kg/injection, schedule: Q04DX003 (ip), vehicle: saline with Tween-80 96 % of control | dose: 400.0 mg/kg/injection, schedule: Q01DX009 (ip), vehicle: saline with Tween-80 102 % of control | dose: 400.0 mg/kg/injection, schedule: Q04DX003 (ip), vehicle: saline with Tween-80 104 % of control

CC(C)(C)CC(C)(C)NS(=O)(=O)CCCBr
inactive: dose: 25.0 mg/kg/injection, schedule: Q04DX003 (ip), vehicle: saline with Tween-80 95 % of control | dose: 50.0 mg/kg/injection, schedule: Q04DX003 (ip), vehicle: saline with Tween-80 111 % of control

CCN(CC)c1ccc2nc3ccc(N(CC)CC)cc3[n+](-c3ccccc3)c2c1
inactive: dose: 3.0 mg/kg/injection, schedule: Q01DX009 (ip), vehicle: saline 111 % of control | dose: 6.0 mg/kg/injection, schedule: Q01DX009 (ip), vehicle: saline 115 % of control

— PubChem BioAssay AID248 (DTP/NCI, 2004)
